Columns and labels:
Assay type in all cases: in vivo
Corynesbora cassiicora [1] = assay: Test Example 2: penetration effect against cucumber leaf spot; conditions: isofetamid 400 ppm + product 0.05 wt %, leaf adaxial surface, 1,000 L/ha; abaxial inoculation after 4 days; examined 7 days after inoculation
Text: Cucumber (cultivar: Natsusuzumi) was cultivated in a polyethylene pot having a diameter of 7.5 cm, and when the cucumber reached 1.5-leaf stage, an isofetamid 400 ppm solution prepared by adding an aqueous solution (0.05 wt %) of each of products containing the component (b) as identified in Table 2 to isofetamid, was applied to the leaf adaxial surface by means of a spray gun in an amount corresponding to 1,000 L/ha. The cucumber was cultivated in a greenhouse for 4 days, and the leaf abaxial surface was sprayed and inoculated with a suspension of conidia of Corynesbora cassiicora, and the cucumber was kept under humidified chamber conditions at 23° C. for 24 hours. Thereafter, the cucumber was kept in a thermostatic chamber at 20° C., and 7 days after the inoculation, the lesion area ratio on the first leaf was examined, and the control value was calculated based on the following formula. Control value=(1−a/b)×100

Corynespora cassiicora [2] = assay: Test Example 5: penetration effect against cucumber leaf spot with different surfactant concentrations; conditions: isofetamid 200 ppm without component (b); abaxial inoculation after 3 days
Experimental: Cucumber (cultivar: […] The cucumber was cultivated in a greenhouse for 3 days, and the leaf abaxial side was sprayed and inoculated with a suspension of conidia of Corynespora cassiicora, and the cucumber was kept under humidified chamber conditions at 23° C. for 24 hours. […] a: lesion area ratio in treated plot, b: lesion area ratio in non-treated plot

Corynespora cassiicora [3] = assay: Test Example 7: residual effect against cucumber leaf spot; conditions: isofetamid 200 ppm + product 0.05 wt %, four-leaf stage, 1,000 L/ha; inoculation after 7 days
Experimental: Cucumber (cultivar: […] After the chemical solution dried, the cucumber was cultivated in a greenhouse for 7 days, and the cucumber was sprayed and inoculated with a suspension of conidia of Corynespora cassiicora, and kept under humidified chamber conditions at 23° C. for 24 hours. Thereafter, the cucumber was cultivated in a room at 20° C. under illumination for 7 days. The lesion area ratio on the first leaf was examined, and the control value was calculated based on the following formula. The obtained results are shown in Table 7. […] a: lesion area ratio in treated plot, b: lesion area ratio in non-treated plot

Corynesbora cassiicora [4] = assay: Test Example 3: curative effect against cucumber leaf spot; conditions: inoculated 24 hours before treatment; isofetamid 400 ppm + product 0.05 wt %, 1,000 L/ha; examined 7 days after inoculation
Text: Cucumber (cultivar: […] The leaf was air-dried, and an isofetamid 400 ppm solution prepared by adding an aqueous solution (0.05 wt %) of each of products containing the component (b) as identified in Table 3 to isofetamid, was applied by means of a spray gun in an amount corresponding to 1,000 L/ha. […] a: lesion area ratio in treated plot, b: lesion area ratio in non-treated plot

Sphaerotheca fulidinea [5] = assay: Test Example 4: rainfastness against cucumber powdery mildew; conditions: isofetamid 200 ppm + product 0.05 wt %, 1,000 L/ha; after 2 days rainfall 40 mm per hour for one hour, then adaxial inoculation
Experimental: Cucumber (cultivar: […] After the chemical solution dried, the cucumber was cultivated in a greenhouse for 2 days, and rainfall treatment (rainfall intensity: 40 mm per hour) was carried out by means of an artificial rainfall apparatus for one hour, and after drying, the leaf adaxial surface was sprayed and inoculated with a suspension of conidia of Sphaerotheca fulidinea, and the cucumber was cultivated in a room at 20° C. under illumination for 7 days. The lesion area ratio on the adaxial surface of the first leaf was examined, and the control value was calculated based on the following formula. […] a: lesion area ratio in treated plot, b: lesion area ratio in non-treated plot

Sphaerotheca fulidinea [6] = assay: Test Example 6: penetration effect against cucumber powdery mildew; conditions: isofetamid 400 ppm + product 0.025 wt %, leaf adaxial surface, 1,000 L/ha; abaxial inoculation after 4 days
Text: Cucumber (cultivar: Sagamihanjiro Fushinari) was cultivated in a polyethylene pot having a diameter of 7.5 cm, and when the cucumber reached 1.5-leaf stage, an isofetamid 400 ppm solution prepared by adding an aqueous solution (0.025 wt %) of each of products containing the component (b) as identified in Table 6 to isofetamid was applied to the leaf adaxial surface by means of a spray gun in an amount corresponding to 1,000 L/ha. The cucumber was cultivated in a greenhouse for 4 days, and then the leaf abaxial side was sprayed and inoculated with a suspension of conidia of Sphaerotheca fulidinea, and the cucumber was cultivated in a room at 22° C. under illumination for 7 days. The lesion area ratio on the abaxial side of the first leaf was examined, and the control value was calculated based on the following formula. Control value=(1−a/b)×100
(§1) a: lesion area ratio in treated plot, b: lesion area ratio in non-treated plot

Sphaerotheca fulidinea [7] = assay: Test Example 1: penetration effect against cucumber powdery mildew; conditions: isofetamid 400 ppm + product 0.05 wt %, leaf adaxial surface, 1,000 L/ha, abaxial inoculation after 4 days, No addition = without component (b)
Experimental: Cucumber (cultivar: Sagamihanjiro Fushinari) was cultivated in a polyethylene pot having a diameter of 7.5 cm, and when the cucumber reached 1.5-leaf stage, an isofetamid 400 ppm solution prepared by adding an aqueous solution (0.05 wt %) of each of products containing the component (b) as identified in Tables 1-1 to 1-6 to isofetamid, was applied to the leaf adaxial surface by means of a spray gun in an amount of 1,000 L/ha (20 ml/0.2 m^2). After the chemical solution dried, the cucumber was cultivated in a greenhouse for 4 days, the leaf abaxial surface was sprayed and inoculated with a suspension of conidia of Sphaerotheca fulidinea, and the cucumber was cultivated in a room at 22° C. under illumination for 7 to 8 days. The lesion area ratio on the abaxial surface of the first leaf was examined, and the control value was calculated based on the following formula. In Tables, “no addition” means the above treatment without adding the component (b) (the same applies hereinafter). Control value=(1−a/b)×100
as §1

Cc1cc(OC(C)C)ccc1C(=O)C(C)(C)NC(=O)c1sccc1C [No addition, isofetamid]
Control value (Corynesbora cassiicora [1]): 68
Control value (Corynespora cassiicora [2]): 66.7
Control value (Corynespora cassiicora [3]): 80
Control value (Corynesbora cassiicora [4]): 0
Control value (Sphaerotheca fulidinea [5]): 62
Control value (Sphaerotheca fulidinea [6]): 54.6
Control value (Sphaerotheca fulidinea [7]; Table 1-1): 0
Control value (Sphaerotheca fulidinea [7]; Table 1-2): 6
Control value (Sphaerotheca fulidinea [7]; Table 1-3): 4
Control value (Sphaerotheca fulidinea [7]; Table 1-4): 11
Control value (Sphaerotheca fulidinea [7]; Table 1-5): 14
Control value (Sphaerotheca fulidinea [7]; Table 1-6): 68

Source: patent US11412733B2, “Method for enhancing plant disease controlling effects of isofetamid and method for controlling plant diseases” (ISHIHARA SANGYO KAISHA, LTD., priority 2016, dated 2022)
